# Values quoted from earlier work as cited in patent US20250295115A1, “USE OF HERBICIDAL COMPOSITIONS BASED ON L-GLUFOSINATE IN TOLERANT FIELD CROPS” (BASF SE, priority 2017, published 2025).
# System: perennial weeds and brush
# Details: as taught by U.S. Pat. No. 4,265,654
compound,measurement,value
"CP(=O)(O)CC[C@H](N)C(=O)O (single isomer, unassigned) [L-isomer]",Effectiveness compared with the racemic acid,twice as effective
